Source: US10975142B2, “Endotrophin neutralization and use thereof” (THE BOARD OF REGENTS OF THE UNIVERSITY OF TEXAS SYSTEM, priority 2013, dated 2021)

B1: 10B6: rat anti-mouse endotrophin monoclonal antibody; light chain variable SEQ ID NO: 2, heavy chain variable SEQ ID NO: 4 (antibody, V domains shown)
VH: QVQLQQSGPELAKPGSSVKISCKASGYTFTSYEMHWIKQRPGQGLEWIGYIYPESGSTGYNEKFKGKATLTVDKSSPTAYMQLSSLTPDNSAVYFCTRGLRVLGYVMDVWGHGTSVTVSS
VL: DVQLTQSPSFLSASVGDRVTINCKASQNINKYLNWYQQKLGEAPKRLIYNTNNLQTGIPSRFSGSASGTDYTLTISSLHPEDFATYFCLQHSSLYTFGAGTKLELK

What was measured:
endotrophin+-tumors = assay: allografts of Ctrl- and endotrophin+-cancer cells in wild-type hosts, TZD and cisplatin; format: in vivo, mouse; settings: cisplatin 1 mg/kg ip. every 5 days, TZD 20 mg/kg or ND
Description: FIGS. 21A-21F. TZD synergizes cisplatin sensitivity through suppression of endotrophin-mediated EMT, fibrosis and vasculature. FIGS. 21A-21B. Schematic diagram for allografts (FIG. 21A), indicating cancer cells (0.5×10^6 cells/mouse) were isolated from tumors in PyMT (Ctrl) and PyMT/endotrophin (ETP) mice and implanted into wild-type hosts. Host mice were given TZD (20 mg/kg) or ND diet at 10 days before implantation for tumor progression. Cisplatin (1 mg/kg, ip., every 5 days) was administered at 3-weeks post implantation. […] Data represent mean±SD (n=8-9/group). *p=0.05, **p=0.01 and ***p=0.001 Ctrl/ND vs. ETP/ND; ^##p=0.01 and ^###p=0.001 ETP/ND vs. ETP/TZD by unpaired student t-test. FIGS. 21C-21F. Histological analysis of tumors in allografts after cisplatin treatment. […] Vimentin staining quantification (FIG. 21D), showing decreased EMT in both Ctrl- and endotrophin^+-tumors by TZD. ***p<0.0001 and ^###p<0.0001. Quantification of perfused lectin staining (FIG. 21E), showing the increased functional blood vessels in endotrophin^+-tumors was decreased by TZD. *p=0.015, **p=0.001 and ^##p=0.0088. Masson's Trichrome C staining quantification (FIG. 21F), showing increased fibrosis in endotrophin^+-tumors was decreased by TZD. ***p<0.0001 and ^##p=0.0013. […] Statistics (*Ctrl/ND/CIS vs. Ctrl/TZD/CIS or ETP/ND/CIS; ^#ETP/ND/CIS vs. ETP/TZD/CIS) were analyzed by unpaired student t-test. […]

4T1 = 4T1 xenograft in nude mice, cisplatin with 10B6 or IgG; format: in vivo; settings: 28-days; cisplatin 1 mg/kg every 5 days, 10B6 100 μg/mouse once a week
Description: FIGS. 22A-22E. Neutralizing endotrophin activities with monoclonal antibodies sensitizes tumors to cisplatin treatment. FIG. 22A. Pieces of tumors from PyMT mice were implanted into wild-type hosts. Tumor-bearing mice were given cisplatin (1 mg/kg, ip., every 5 days) or PBS, combined with either TZD (20 mg/kg) or anti-endotrophin monoclonal antibodies (100 μg/mouse, once a week) for tumor progression. Tumor volumes were determined by caliper measurements. Data represent mean±SD (n=5/group). *p<0.05, **p<0.01, ***p<0.001 vs. Cisplatin by 2-way ANOVA. FIGS. 22B-22D. 4T1 (0.5×10^6/mouse) cells were xenografted in nude mice and monitored tumor growth (FIG. 22B) and metastasis (FIG. 22C). […] Tumor volumes were determined by caliper measurements. […] Metastatic burden was determined by measuring metastatic lesion area in lung tissues with H&E stains. Quantified data represent mean±SD (n=5/group). **p=0.0007 and *p=0.0209 vs. CIS/10B6 by unpaired student t-test. mRNA levels for EMT markers such as vimentin, snail, slug, twist1, twist2 and S100S4 were determined by RT-qPCR (FIG. 22D). […]
As a last step, therapeutic potential of a previously described endotrophin neutralizing antibody (clone 10B6) on cisplatin sensitivity was determined. […] Tumor regression was monitored for 2-months post implantation. […]

MS-1 cells = assay: in vitro angiogenesis assay (tubule formation on Matrigel); format: cell-based, mouse; settings: 10B6 10 μg/well, 3 hours
Description: FIGS. 17A-17B. Endotrophin effects on endothelial cell migration. FIG. 17A. in vivo Matrigel bioassays were performed as described in FIG. 6J. Matrigel plugs were analyzed by H&E and immunostaining for CD31 (endothelial cell marker). Scale bars: 200 μm (H&E), and 50 μm (CD31). FIG. 17B. in vitro Angiogenesis assay. MS-1 cells (5×10^4 cells/well) were plated in triplicate on the matrigel coated 12-well plates. Tubule formation was assessed 3 hours after incubation with conditioned media derived from H293 or H293-endotrophin overexpressing cells in the presence or absence of 10B6 (10 μg/well). Scale bars: 500 μm.
A total 300 μl/well of growth factor reduced matrigel (BD biosciences) was plated into 12 well plates. MS-1 cells (5×10^4) were seeded and images were acquired 3-4 hours after incubation with the conditioned media indicated.

Molecule | tumor growth (volume) of endotrophin+-tumors (endotrophin+-tumors) | primary tumor growth of 4T1 (4T1) | vasculature structure (tubule) formation induced by conditioned media from ETP-overexpressing HEK-293T cells (MS-1 cells)
N.N.[Cl][Pt][Cl] [cisplatin, cis-diammine-dichloro-platinum] | more resistant | barely inhibited | 
B1 |  | barely inhibited | completely blocked
